# Results published in patent US6355799B1, “Substituted benzene compounds, process for their preparation, and herbicidal and defoliant compositions containing them” (ISK Americas Incorporated, priority 1997, dated 2002).
# Legend:
# Type in all cases: in vivo
# [1] = test system: upland rice (Oryza sp., var. Tebonnet, RICE); assay: Post-emerge test, crop safety; conditions: post-emerge, 14 days after application, rating scale 0-100
# Procedure, shortened: (§1)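 Visual ratings on a 0-100 scale (0 no damage, 100 all plants dead) were taken at 14 days after treatment. Rates of 15-1000 g ai/ha in acetone, 187 l/ha, were sprayed onto soil one day after planting (pre-emerge) or onto 2-3 leaf plants with 0.25% v/v surfactant (post-emerge).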
# [2] = test system: field corn (Zea mays L., var. Dekalb 535, CORN); assay: Post-emerge test, crop safety; conditions: post-emerge, 14 days after application, rating scale 0-100
# Procedure, shortened: as §1
# [3] = test system: sicklepod (Cassia obtusifolia, CASOB); assay: Pre-emerge test, greenhouse herbicide activity screening; conditions: rated 14 days after application, 0 = no damage, 100 = complete death
# Procedure, shortened: as §1
# [4] = test system: johnsongrass (Sorghum halepense, SORHA); assay: as above; conditions: rated 14 days after application, 0 = no damage, 100 = complete death
# Procedure, shortened: as §1
# [5] = test system: barnyardgrass (Echinochloa crus-galli, ECHCG); assay: as above; conditions: rated 14 days after application, 0 = no damage, 100 = complete death
# Procedure, shortened: as §1
# [6] = test system: lambsquarters (Chenopodium album, CHEAL); assay: as above; conditions: rated 14 days after application, 0 = no damage, 100 = complete death
# Procedure, shortened: as §1
# [7] = test system: common ragweed (Ambrosia artemisizfolia L., AMBEL); assay: as above; conditions: rated 14 days after application, 0 = no damage, 100 = complete death
# Procedure, shortened: as §1
# [8] = test system: velvetleaf (Abutilon theophrasti, ABUTH); assay: as above; conditions: rated 14 days after application, 0 = no damage, 100 = complete death
# Procedure, shortened: as §1
# [9] = test system: ivyleaf morningglory (Ipomoea hederacea, IPOHE); assay: as above; conditions: rated 14 days after application, 0 = no damage, 100 = complete death
# Procedure, shortened: as §1
# [10] = test system: green foxtail (Setaria viridis, SETVI); assay: as above; conditions: rated 14 days after application, 0 = no damage, 100 = complete death
# Procedure, shortened: as §1
# [11] = test system: large crabgrass (Digitaria sanguinalis, DIGSA); assay: as above; conditions: rated 14 days after application, 0 = no damage, 100 = complete death
# Procedure, shortened: as §1
# [12] = test system: redroot pigweed (Amaranthus retroflexus, AMARE); assay: as above; conditions: rated 14 days after application, 0 = no damage, 100 = complete death
# Procedure, shortened: (§2)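 Compounds in acetone were track-sprayed at 187 l/ha, 15–1000 g ai/ha, onto sandy loam pots. Pre-emerge seeds were sown one day before spraying, with surface watering afterwards. Post-emerge plants were at the 2–3 leaf stage and sprayed with 0.25% v/v non-ionic surfactant. Injury was rated 0–100 at 14 days.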
# [13] = test system: upland rice (Oryza sp., var. Tebonnet, RICE); assay: Pre-emerge test, crop safety; conditions: rated 14 days after application, 0 = no damage, 100 = complete death
# Procedure, shortened: as §2
# [14] = test system: field corn (Zea mays L., var. Dekalb 535, CORN); assay: Pre-emerge test, crop safety; conditions: rated 14 days after application, 0 = no damage, 100 = complete death
# Procedure, shortened: as §2
# [15] = test system: sicklepod (Cassia obtusifolia, CASOB); assay: Post-emerge test, greenhouse herbicide activity screening; conditions: post-emerge, 14 days after application, rating scale 0-100
# Procedure, shortened: (§3)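 Sandy loam pots; pre-emerge: sown 1 d pre-spray, surface-watered after, then bottom-watered. Post-emerge: sown 8–21 d before, 2–3 leaf stage, + 0.25% v/v NIS, bottom-watered. Acetone, 187 l/ha track spray, 15–1000 g ai/ha. 0–100 injury score, day 14.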
# [16] = test system: johnsongrass (Sorghum halepense, SORHA); assay: as above; conditions: post-emerge, 14 days after application, rating scale 0-100
# Procedure, shortened: as §3
# [17] = test system: barnyardgrass (Echinochloa crus-galli, ECHCG); assay: as above; conditions: post-emerge, 14 days after application, rating scale 0-100
# Procedure, shortened: as §3
# [18] = test system: lambsquarters (Chenopodium album, CHEAL); assay: as above; conditions: post-emerge, 14 days after application, rating scale 0-100
# Procedure, shortened: as §3
# [19] = test system: redroot pigweed (Amaranthus retroflexus, AMARE); assay: as above; conditions: post-emerge, 14 days after application, rating scale 0-100
# Procedure, shortened: as §3
# [20] = test system: common ragweed (Ambrosia artemisizfolia L., AMBEL); assay: as above; conditions: post-emerge, 14 days after application, rating scale 0-100
# Procedure, shortened: as §3
# [21] = test system: velvetleaf (Abutilon theophrasti, ABUTH); assay: as above; conditions: post-emerge, 14 days after application, rating scale 0-100
# Procedure, shortened: as §3
# [22] = test system: ivyleaf morningglory (Ipomoea hederacea, IPOHE); assay: as above; conditions: post-emerge, 14 days after application, rating scale 0-100
# Procedure, shortened: as §3
# [23] = test system: green foxtail (Setaria viridis, SETVI); assay: as above; conditions: post-emerge, 14 days after application, rating scale 0-100
# Procedure, shortened: as §3
# [24] = test system: large crabgrass (Digitaria sanguinalis, DIGSA); assay: as above; conditions: post-emerge, 14 days after application, rating scale 0-100
# Procedure, shortened: as §3
compound,measurement,setting,value
COc1c(Cl)cc(F)c(-n2c(=O)cc(C(F)(F)F)n(C)c2=O)c1NC(=O)c1ccc(C#N)cc1 [2-67],phytotoxicity rating RICE,[1]; 63 g ai/ha,70
same,phytotoxicity rating RICE,[1]; 250 g ai/ha,80
same,phytotoxicity rating CORN,[2]; 63 g ai/ha,20
same,phytotoxicity rating CORN,[2]; 250 g ai/ha,95
same,"Pre-emerge Herbicidal Activity, phytotoxicity rating (0-100), CASOB",[3]; 63 g ai/ha,100
same,"Pre-emerge Herbicidal Activity, phytotoxicity rating (0-100), CASOB",[3]; 250 g ai/ha,100
same,"Pre-emerge Herbicidal Activity, phytotoxicity rating (0-100), SORHA",[4]; 63 g ai/ha,80
same,"Pre-emerge Herbicidal Activity, phytotoxicity rating (0-100), SORHA",[4]; 250 g ai/ha,100
same,"Pre-emerge Herbicidal Activity, phytotoxicity rating (0-100), ECHCG",[5]; 63 g ai/ha,50
same,"Pre-emerge Herbicidal Activity, phytotoxicity rating (0-100), ECHCG",[5]; 250 g ai/ha,95
same,"Pre-emerge Herbicidal Activity, phytotoxicity rating (0-100), CHEAL",[6]; 63 g ai/ha,100
same,"Pre-emerge Herbicidal Activity, phytotoxicity rating (0-100), CHEAL",[6]; 250 g ai/ha,100
same,"Pre-emerge Herbicidal Activity, phytotoxicity rating (0-100), AMBEL",[7]; 63 g ai/ha,100
same,"Pre-emerge Herbicidal Activity, phytotoxicity rating (0-100), AMBEL",[7]; 250 g ai/ha,100
same,"Pre-emerge Herbicidal Activity, phytotoxicity rating (0-100), ABUTH",[8]; 63 g ai/ha,100
same,"Pre-emerge Herbicidal Activity, phytotoxicity rating (0-100), ABUTH",[8]; 250 g ai/ha,100
same,"Pre-emerge Herbicidal Activity, phytotoxicity rating (0-100), IPOHE",[9]; 63 g ai/ha,100
same,"Pre-emerge Herbicidal Activity, phytotoxicity rating (0-100), IPOHE",[9]; 250 g ai/ha,100
same,"Pre-emerge Herbicidal Activity, phytotoxicity rating (0-100), SETVI",[10]; 63 g ai/ha,100
same,"Pre-emerge Herbicidal Activity, phytotoxicity rating (0-100), SETVI",[10]; 250 g ai/ha,100
same,"Pre-emerge Herbicidal Activity, phytotoxicity rating (0-100), DIGSA",[11]; 63 g ai/ha,100
same,"Pre-emerge Herbicidal Activity, phytotoxicity rating (0-100), DIGSA",[11]; 250 g ai/ha,100
same,"Pre-emerge Herbicidal Activity, phytotoxicity rating (0-100), AMARE",[12]; 63 g ai/ha,100
same,"Pre-emerge Herbicidal Activity, phytotoxicity rating (0-100), AMARE",[12]; 250 g ai/ha,100
same,"Pre-emerge phytotoxicity rating (0-100), crop damage, RICE",[13]; 63 g ai/ha,90
same,"Pre-emerge phytotoxicity rating (0-100), crop damage, RICE",[13]; 250 g ai/ha,90
same,"Pre-emerge phytotoxicity rating (0-100), crop damage, CORN",[14]; 63 g ai/ha,90
same,"Pre-emerge phytotoxicity rating (0-100), crop damage, CORN",[14]; 250 g ai/ha,99
same,phytotoxicity rating CASOB,[15]; 63 g ai/ha,100
same,phytotoxicity rating CASOB,[15]; 250 g ai/ha,100
same,phytotoxicity rating SORHA,[16]; 63 g ai/ha,0
same,phytotoxicity rating SORHA,[16]; 250 g ai/ha,80
same,phytotoxicity rating ECHCG,[17]; 63 g ai/ha,0
same,phytotoxicity rating ECHCG,[17]; 250 g ai/ha,40
same,phytotoxicity rating CHEAL,[18]; 63 g ai/ha,100
same,phytotoxicity rating CHEAL,[18]; 250 g ai/ha,100
same,phytotoxicity rating AMARE,[19]; 63 g ai/ha,100
same,phytotoxicity rating AMARE,[19]; 250 g ai/ha,100
same,phytotoxicity rating AMBEL,[20]; 63 g ai/ha,100
same,phytotoxicity rating AMBEL,[20]; 250 g ai/ha,100
same,phytotoxicity rating ABUTH,[21]; 63 g ai/ha,100
same,phytotoxicity rating ABUTH,[21]; 250 g ai/ha,100
same,phytotoxicity rating IPOHE,[22]; 63 g ai/ha,99
same,phytotoxicity rating IPOHE,[22]; 250 g ai/ha,100
same,phytotoxicity rating SETVI,[23]; 63 g ai/ha,20
same,phytotoxicity rating SETVI,[23]; 250 g ai/ha,30
same,phytotoxicity rating DIGSA,[24]; 63 g ai/ha,0
same,phytotoxicity rating DIGSA,[24]; 250 g ai/ha,40
